Drawing on ChEMBL document CHEMBL1145697, “Halishigamides AD, New Cytotoxic Oxazole-Containing Metabolites from Okinawan Sponge Halichondria sp” (J Nat Prod, 1997), this text covers MIC and IC50 for four compounds.

The test system of experiment [1] is Trichophyton mentagrophytes. In words: Antifungal activity against Trichophyton mentagrophytes. It counts as functional.
In another experiment the test system is KB. Description: Cytotoxicity against human KB cells. It counts as functional, cell-based.
The test system of the next experiment is L1210. Description: Cytotoxicity against mouse L1210 cells. The experiment is classed as functional, cell-based.

In brackets after ≈: the same amount, converted by molar mass.

Consider `CO[C@@H](C[C@@H]1OC(=O)C[C@@H](O)C[C@H](N)CC(=O)[C@H](C)[C@H](OC)c2coc(n2)-c2coc(n2)-c2coc(n2)/C=C/CC[C@H]1C)[C@@H](C)CCC(=O)[C@H](C)[C@@H](C/C=C/N(C)C=O)OC` [HALISHIGAMIDE A], for which the MIC in experiment [1] was 0.1 µg/mL (≈ 0.117 µM). The half-inhibitory concentration (IC50) in the experiment with KB is 0.012 µg/mL (≈ 0.0141 µM); in the experiment on L1210 it was 0.0036 µg/mL (≈ 0.00422 µM).

For the compound `COC(CC1OC(=O)CC(O)C/C=C/C(=O)C(C)C(OC)C(=O)NC(=O)c2coc(n2)-c2coc(n2)/C=C/CCC1C)C(C)CCC(=O)C(C)C(C/C=C/N(C)C=O)OC` (configuration not stated) [HALISHIGAMIDE B], 25 µg/mL (≈ 29.7 µM) was the least that counted as inhibitory in experiment [1] (MIC). Further, the concentration for half-maximal inhibition (IC50) in the experiment on KB came out at 7.5 µg/mL (≈ 8.92 µM); with L1210 it was 4.4 µg/mL (≈ 5.23 µM).

Turning to `COC(=O)c1coc(-c2coc(/C=C/CCC(C)C(CC(OC)C(C)CCC(=O)C(C)C(C/C=C/N(C)C=O)OC)OC(=O)CC(O)C/C=C/C(=O)C(C)C(OC)C(N)=O)n2)n1` (configuration not stated) [HALISHIGAMIDE C], the minimal inhibitory concentration (MIC) in experiment [1] amounted to 25 µg/mL (≈ 28.6 µM). The IC50 in the experiment with KB turned out to be 6.5 µg/mL (≈ 7.45 µM); in the experiment with L1210, 5.2 µg/mL (≈ 5.96 µM).

In the case of `COC(=O)c1coc(/C=C/CCC(C)C(CC(OC)C(C)CCC(=O)C(C)C(C/C=C/N(C)C=O)OC)OC(=O)CC(O)C/C=C/C(=O)C(C)C(OC)c2coc(C(N)=O)n2)n1` (configuration not stated) [HALISHIGAMIDE D], it took 6.5 µg/mL (≈ 7.45 µM) to inhibit growth in experiment [1] (MIC). Further, the half-maximal inhibitory concentration (IC50) was found to be 1.8 µg/mL (≈ 2.06 µM) in the experiment on KB and 1.1 µg/mL (≈ 1.26 µM) in the experiment on L1210.
